In patent US11952582B2, “Herbicide-resistance gene and application thereof in plant breeding” (priority 2017, dated 2024):
“Also recorded” adds a separate entry of the source.

Legend:
[1] = system: HPPD, VTE1 and VTE3 gene expression in Arabidopsis seedlings; assay: qRT-PCR of HPPD and vitamin E biosynthesis genes in Arabidopsis after herbicide treatment; assay type: in vivo, Arabidopsis thaliana; conditions: 250 nM, 6 h
Experimental: 2 week-old T3 generation seedlings of WT, OE At, OE Pa and OE M3 were used as materials to set up a treatment group and a control group, respectively, wherein the treatment group was continuously cultured in ½ MS liquid medium containing 250 nM mesotrione for 6 h. The total RNA of related materials was extracted using Super Fast Plant RNA Extraction Kit (Beijing Huayueyang Biological Technology Co., Ltd., China). The concentration of RNA samples was measured using NanoDrop ND1000 (Thermo Scientific, USA). RNA samples with an absorbance ratio (at wavelengths of 260/280 nm and 260/230 nm) of approximately 2.0 were selected. The total RNA (1,000 ng) was then used for synthesis of cDNA for reverse transcription using a cDNA synthesis kit (One-step Removal of Transcript gDNA and cDNA Synthesis Super Kit, TransGen).
As for quantitative reverse transcription PCR analysis, 3.0 μL cDNA was used as a template in a 20 μL reaction system to detect the expression levels of HPPD as well as VTE1 and VTE3 genes which encode the key enzymes in the biosynthesis of vitamin E, and actin was used as an internal reference gene. Three technical repetitions were performed on the Bio-Rad CFX96 real-time system. REST software was used for statistical analysis.

[2] = system: WT and T0 OE SDM rice leaves; assay: Malondialdehyde content in rice leaves; assay type: in vivo; conditions: 200 μM spray, 1 week
Experimental: Malondialdehyde (MDA) is an important marker of the degree of oxide film damage. The previous method (Heath and Packer, 1968) for the determination of malondialdehyde content was referred with slight modifications. 1 g of rice leaves were accurately weighed and place to a pre-cooling mortar. 10 mL of pre-cooling 10% trichloroacetic acid (TCA, v/v) was added and grind thoroughly. Then the lapping solution was transfered to a 10 mL centrifuge tube and centrifuged at 4000 rpm for 10 min (4° C.). 2 mL of supernatant was pipetted and mixed with an equal volume of 0.6% 2-Thiobarbituric acid (TBA, v/v), and incubated at 100° C. for 15 min.
Then the reaction solution was cooled at room temperature. The cooled reaction solution was centrifuged at 4000 rpm for 10 min (4° C.). The supernatant was taken and measured absorbance at wavelengths of 450 nm, 532 nm and 600 nm using ultraviolet spectrophotometers, respectively. Each sample was repeated 3 times. The unit of MDA content is nmol g^−1 FW.

[3] = system: WT and T0 OE SDM rice seedlings; assay: Total chlorophyll content in rice leaves; assay type: in vivo; conditions: 200 μM
Experimental: Referring to the method of Lichtenthaler HK (1987), chlorophyll was extracted from the leaves of wild-type and T0 generation OE SDM rice seedlings which were sprayed with 200 μM mesotrione (prepared with 0.1% Tween-20) and sprayed with control 0.1% Tween-20 after 2 weeks and its content was determined. All experiments were repeated biologically 3 times, and the average value was taken.

[4] = system: WT and T0 OE SDM rice seedlings; assay: Rice resistance to herbicide at pot level (spray); assay type: in vivo; conditions: 200 μM spray, 21 d (3 weeks)
Experimental: Transgenic T0 generation OE SDM and WT rice seedlings were planted in pots containing soil and placed in an artificial climate room (30° C. 16 h light/28° C. 8 h dark) for growth. 3 weeks later, when the rice seedlings reached a height of 15-20 cm, 200 μM mesotrione (prepared with 0.1% Tween-20) and 0.1% Tween-20 were sprayed to OE SDM and WT rice seedlings, respectively. Then, the phenotype should be observed every week. The oxidative stress index was measured 1 week after the treatment, the chlorophyll content of the leaves was measured 2 weeks after the treatment, and the experimental result was photographed 3 weeks after the treatment.

[5] = system: WT and T0 OE SDM rice leaves; assay: Oxidative stress indexes of rice leaves (NBT, DAB staining); assay type: in vivo; conditions: 1 week; for O2 and H2O2 accumulation in leaves (NBT, DAB): 200 μM
Experimental: Herbicides cause the production of reactive oxygen species (ROS), leading to cell death. In order to determine the oxidation state of rice, leaves of wild-type and TO-generation OE SDM rice which were sprayed with 200 μM mesotrione (prepared with 0.1% Tween-20) and sprayed with control 0.1% Tween-20 were collected, and stained with nitroblue tetrazolium (NBT) and 3,3-diaminobenzidine (DAB), respectively, to analyze the accumulation of superoxide (O2^−) and hydrogen peroxide (H2O2).
At the end of the herbicide treatment, leaves of 4 week-old rice (normal growth for 3 weeks and herbicide spray treatment for 1 week) were placed in a 3.5 mg mL^−1 nitroblue tetrazolium (N6876, Sigma-Aldrich) staining solution (potassium phosphate buffer containing 10 mM NaN3), soaked in vacuum, and shaked on a shaker overnight. The NBT-stained plants were destained with a mixed solution of acetic acid:glycerol:ethanol=1:1:3 (v/v/v) at 100° C. for 5 min, and then reserved in a mixed solution of glycerol:ethanol=1:4 (v/v).
Rice seedling leaves were soaked in DAB staining solution for 2 min under vacuum, and then placed in a shaker for 7-8 h. The DAB-stained plants were destained with a mixed solution of acetic acid:glycerol:ethanol=1:1:3 (v/v/v) at 100° C. for 5 min, and then reserved in a mixed solution of glycerol:ethanol=1:4 (v/v).

[6] = system: Arabidopsis WT (Col0), OE At, OE Pa, OE M3 lines; assay: Arabidopsis seed germination test on herbicide-containing 1/2 MS medium; assay type: in vivo, Arabidopsis thaliana; conditions: 2 weeks
Experimental: In order to evaluate the resistance of different HPPD overexpression lines to herbicides, Arabidopsis seed germination tests were performed on media containing different concentrations of herbicides. T3 generation Arabidopsis seeds and Co10 (WT) seeds were performed steam surface sterilization (concentrated HCl: NaClO=1:5, v/v) for 3 h. Seeds of OE At (OE At #1, OE At #2), OE Pa (OE Pa #1, OE Pa #2), OE M3 (OE M3 #1, OE M3 #2) and Co10 (WT) were dibbled together in ^1/2 MS medium (0.5 x MS salt, 1% sucrose and 0.8% agar) in a 24-well plate, and the medium contained different concentrations (0, 31.25, 62.5, 125, 500 and 2000 nM) of mesotrione (Sigma Aldrich, USA) and sulcotrione (Sigma Aldrich, USA). Then, the plate dibbled seeds was placed in the dark at 4° C. for 3 d, and then transferred to a growth chamber at 22° C. (16 h light/8 h dark) for 2 weeks. Three biological replicates were performed per treatment per species. After 2 weeks, the test results were photographed.

## CS(=O)(=O)c1ccc(C(=O)C2C(=O)CCCC2=O)c([N+](=O)[O-])c1 [mesotrione]
[1]; OE At, OE Pa and WT lines
  expression levels of HPPD, VTE1 and VTE3 compared with untreated seedlings: inhibited to varying degrees
[1]; OE M3 line
  HPPD gene expression level compared with untreated seedlings: basically not inhibited
  gene expression levels of VTE1 and VTE3 compared with untreated seedlings: up-regulated
[2]
  MDA content in WT rice leaves compared with OE SDM rice leaves: significantly higher
[3]; OE PaHPPD-SDM rice
  chlorophyll content of leaves after treatment: did not decrease significantly
[3]; WT rice, 2 weeks
  total chlorophyll content in leaves compared with treated OE SDM rice: greatly reduced
[4]; OE SDM rice line (T0)
  phenotype of leaves/plants: grew well; also recorded: very small visible signs of damage
[4]; WT rice
  phenotype of leaves/plants: albino and the growth was inhibited until death; also recorded: withered and died
[5]; 200 μM spray
  contents of superoxide, H2O2 and MDA in WT rice leaves compared with OE SDM rice leaves: significantly higher
[5]; OE SDM rice
  O2 and H2O2 accumulation in leaves (NBT, DAB): little
[5]; WT rice
  O2 and H2O2 accumulation in leaves (NBT, DAB): large number
[6]; OE At (two lines) and WT
  concentration giving albino death / severely inhibited growth: 31.25 nM
[6]; OE Pa (two lines), T3 seeds
  concentration at which seedlings grow normally: 62.5 nM
